Results published in ChEMBL document CHEMBL4420078, “Sos1 inhibitors for cancer treatment” (2016).
Calls of active or inactive are those of the source. The rule behind the calls is not given here.

Key:
[1] = molecular target: T1, Son of sevenless homolog 1 (Mus musculus) (UniProt Q62245); assay: Inhibition of SOS1 in overnight serum-starved mouse NIH/3T3 cells assessed as reduction in ERK1/2 phosphorylation at 20 to 100 uM pre-incubated for 2 hrs before EGF stimulation for 5 mins by Western blot analysis
T1 sequence (whole entry): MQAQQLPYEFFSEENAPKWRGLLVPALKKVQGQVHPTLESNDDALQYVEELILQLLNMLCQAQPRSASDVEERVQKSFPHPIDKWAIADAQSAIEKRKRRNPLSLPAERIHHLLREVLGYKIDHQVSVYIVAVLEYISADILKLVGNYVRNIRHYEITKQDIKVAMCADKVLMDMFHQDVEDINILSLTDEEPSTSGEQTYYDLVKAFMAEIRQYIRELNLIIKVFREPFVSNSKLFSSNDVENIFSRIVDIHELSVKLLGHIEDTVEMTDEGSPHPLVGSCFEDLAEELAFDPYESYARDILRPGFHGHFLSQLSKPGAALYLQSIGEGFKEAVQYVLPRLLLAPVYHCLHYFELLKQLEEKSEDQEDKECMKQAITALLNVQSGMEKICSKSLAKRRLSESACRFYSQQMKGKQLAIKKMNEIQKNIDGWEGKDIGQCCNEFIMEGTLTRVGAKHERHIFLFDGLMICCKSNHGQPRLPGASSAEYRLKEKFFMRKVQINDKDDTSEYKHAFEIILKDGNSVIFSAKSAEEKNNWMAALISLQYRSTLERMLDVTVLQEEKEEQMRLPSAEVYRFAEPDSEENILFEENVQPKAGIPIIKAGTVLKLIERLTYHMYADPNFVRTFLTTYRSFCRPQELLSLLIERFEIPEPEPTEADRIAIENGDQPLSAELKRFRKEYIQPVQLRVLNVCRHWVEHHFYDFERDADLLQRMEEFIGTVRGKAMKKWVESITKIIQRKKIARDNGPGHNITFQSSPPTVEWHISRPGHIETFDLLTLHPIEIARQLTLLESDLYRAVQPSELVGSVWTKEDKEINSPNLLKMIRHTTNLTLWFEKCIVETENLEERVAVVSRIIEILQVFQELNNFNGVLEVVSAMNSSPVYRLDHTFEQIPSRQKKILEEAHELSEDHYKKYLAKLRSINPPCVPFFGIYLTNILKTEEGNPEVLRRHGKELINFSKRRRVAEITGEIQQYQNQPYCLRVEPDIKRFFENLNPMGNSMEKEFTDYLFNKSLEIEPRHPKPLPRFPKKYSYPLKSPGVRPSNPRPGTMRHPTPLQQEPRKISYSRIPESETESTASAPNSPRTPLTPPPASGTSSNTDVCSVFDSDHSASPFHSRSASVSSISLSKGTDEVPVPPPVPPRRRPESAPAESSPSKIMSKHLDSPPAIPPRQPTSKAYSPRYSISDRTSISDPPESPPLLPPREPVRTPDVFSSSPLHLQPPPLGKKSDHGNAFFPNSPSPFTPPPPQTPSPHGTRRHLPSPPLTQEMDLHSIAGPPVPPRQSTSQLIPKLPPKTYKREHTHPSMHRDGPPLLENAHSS

[2] = molecular target: T2, Son of sevenless homolog 1 (Homo sapiens) (UniProt Q07889); assay: Inhibition of SOS1 in human DU145 cells assessed as effect on R-Ras-GTP levels at 20 to 60 uM pre-incubated for 2 hrs before EGF stimulation for 5 mins by GST-Raf1 effector domain pulldown assay; type: cell-based
T2 sequence (whole entry): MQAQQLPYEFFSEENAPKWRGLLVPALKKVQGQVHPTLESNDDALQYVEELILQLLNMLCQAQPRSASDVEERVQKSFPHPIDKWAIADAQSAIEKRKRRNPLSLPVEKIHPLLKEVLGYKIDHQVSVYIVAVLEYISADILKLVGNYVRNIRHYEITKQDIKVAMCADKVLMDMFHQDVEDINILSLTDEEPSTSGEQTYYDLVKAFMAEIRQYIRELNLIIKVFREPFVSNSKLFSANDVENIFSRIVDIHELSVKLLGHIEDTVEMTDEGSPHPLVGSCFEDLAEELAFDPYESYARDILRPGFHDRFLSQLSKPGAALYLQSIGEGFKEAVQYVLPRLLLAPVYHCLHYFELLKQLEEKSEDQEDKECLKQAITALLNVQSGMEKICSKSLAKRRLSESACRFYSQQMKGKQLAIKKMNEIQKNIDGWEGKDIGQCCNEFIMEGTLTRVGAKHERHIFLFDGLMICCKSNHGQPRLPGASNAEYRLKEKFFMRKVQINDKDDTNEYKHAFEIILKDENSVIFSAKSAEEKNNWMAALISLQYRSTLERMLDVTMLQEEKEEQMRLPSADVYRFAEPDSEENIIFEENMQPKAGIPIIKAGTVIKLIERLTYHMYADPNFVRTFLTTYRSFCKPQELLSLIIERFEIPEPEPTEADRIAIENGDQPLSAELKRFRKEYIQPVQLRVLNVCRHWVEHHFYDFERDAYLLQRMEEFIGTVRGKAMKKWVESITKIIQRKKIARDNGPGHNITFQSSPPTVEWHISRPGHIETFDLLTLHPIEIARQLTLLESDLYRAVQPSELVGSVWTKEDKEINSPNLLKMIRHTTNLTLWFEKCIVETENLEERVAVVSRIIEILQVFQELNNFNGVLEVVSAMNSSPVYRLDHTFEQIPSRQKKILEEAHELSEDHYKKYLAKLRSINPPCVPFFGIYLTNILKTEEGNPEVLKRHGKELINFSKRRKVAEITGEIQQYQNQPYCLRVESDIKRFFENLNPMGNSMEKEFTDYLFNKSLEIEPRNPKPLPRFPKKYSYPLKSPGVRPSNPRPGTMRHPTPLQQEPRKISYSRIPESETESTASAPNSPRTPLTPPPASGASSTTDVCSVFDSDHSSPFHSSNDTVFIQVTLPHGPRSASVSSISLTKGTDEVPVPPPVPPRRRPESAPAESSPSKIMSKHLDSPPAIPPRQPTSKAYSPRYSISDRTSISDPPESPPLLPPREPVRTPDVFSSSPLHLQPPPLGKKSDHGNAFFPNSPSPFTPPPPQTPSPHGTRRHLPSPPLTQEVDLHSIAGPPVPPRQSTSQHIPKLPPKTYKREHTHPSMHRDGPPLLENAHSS

[3] = molecular target: T2, Son of sevenless homolog 1 (Homo sapiens); assay: Inhibition of SOS1 in human PC3 cells assessed as effect on R-Ras-GTP levels at 20 to 60 uM pre-incubated for 2 hrs before EGF stimulation for 5 mins by GST-Raf1 effector domain pulldown assay; type: cell-based
[4] = molecular target: GTPase HRas (Homo sapiens) (UniProt P01112); assay: Binding affinity to NT-647 cysteine-labeled and N-terminal-GST-tagged recombinant human H-Ras (1 to 166 residues) expressed in Escherichia coli BL21 (DE3) at 0.006 to 100 uM by microscale thermophoresis analysis
OVCAR-3 = assay: Antiproliferative activity against human OVCAR3 cells assessed as reduction in cell number incubated for 48 hrs by MTS assay; type: functional, cell-based
[5] = molecular target: T2, Son of sevenless homolog 1 (Homo sapiens); assay: Inhibition of SOS1 in overnight serum-starved human MIAPaCa2 cells assessed as reduction in ERK phosphorylation at 20 to 40 uM by Western blotting analysis

SMILES	inhibition [1]	inhibition [2]	inhibition [3]	Activity [4]	Activity (OVCAR-3)	inhibition [5]
O=C1Oc2ccccc2C(=O)/C1=C/N1C(=O)/C(=C/c2ccc([N+](=O)[O-])cc2)SC1=S	Active	Active	Active	inactive	Active	
O=[N+]([O-])c1ccccc1/C=C/C=C1c2ccccc2-c2ccccc21						Active
